pIC50: −log10 of the molar value.
Experiment: YAP Reporter Assay: HEK293T cells stably transfected with 8XTBD luciferase reporter and pRLTK in 384-well plates were treated with the test compounds, starting from 3 μM (final concentration in assay plate), 1:3 dilution, and 10 points in quadruplicates. Post 24-hr incubation with compounds at 37° C. and 5% CO2, cells were lysed and 8XTBD-driven firefly luciferase and control TK-driven renilla luciferase activities were measured using Promega Dual-Luciferase Reporter Assay System.Reagents: The reagents used for this study are: DMEM: Invitrogen #11960077, Dual-Glo Luciferase Assay System: Promega-E2980, Puromycin Dihydrochloride: Invitrogen-A1113803, 384-well plate: PerkinElmer-6007480, L-GLUTAMINE: Invitrogen-25030164, Hygromycin B: Invitrogen-10687010, and Penicillin-Streptomycin: Merk-TMS-AB2-CMedia: The media used for this assay were: Culture Medium: DMEM+1 ug/mL puromycin+200 ug/mL hygromycin (with 10% FBS+1 mM L-glutamine); and Assay Medium: DMEM (with 10% FBS+1 mM L-glutamine+1× P/S).Cell Plating: The appropriate media was warmed at 37° C. by water bath: Culture Medium, Assay Medium, 1*D-PBS, 0.05% trypsin-EDTA. The cells were trypsinized after removing all media, then washed with 1*sterile D-PBS and then with 2 ml 0.05% trypsin-EDTA. The cells were then incubated at RT for one minute. Then 10 ml/75 cm2 flask Assay Medium was added to each flask. Using a 10 ml pipette, the cells were then gently resuspended in the media, until the clumps completely disappeared. The cells were then transferred into 50 ml centrifuge tubes and were centrifuged at 800 rpm for 5 mins. The medium was removed and the cells were resuspended with Assay Medium. An aliquot of cells was used to count the cell density (cells/nil). The cell suspension was then diluted with Assay Medium to a concentration of 6×10^4 cells/ml. 50 ul cells suspension was then plated to 384-well plate (PerkinElmer-6007480), 3×10^3 cells/well and the cells were incubated in an incubator at 37° C., 5% CO2.Compound Treatment: In the afternoon (incubation of the plate with 3-4 hrs), the test compounds were added by Echo, starting from 3 uM (final concentration in the assay plate), 1:3 dilution, 10 points, quadruplicates. The plate was placed at 37° C., 5% CO2 incubator for 24 hrs.Detection: The Dual-Glo Luciferase Reagent was prepared by transferring the contents of one bottle of Dual-Glo Luciferase Buffer to one bottle of Dual-Glo Luciferase Substrate to create the Dual-Glo Luciferase Reagent. Mixing was performed by inversion until the substrate was thoroughly dissolved. After mixing, the reagent was aliquoted into 15 ml tubes. In the afternoon (24 hrs post compound treatment), the DMEM+ medium in the 384 well plates were aspirated by Microplate Washer.Measuring firefly luciferase activity: 20 ul Dual-Glo Luciferase Reagent was added to the 384-well plates. The plates were protected from light to prevent interference with the assay. The plates were shaken for 1 min followed centrifuging plates at 1000 rpm for 30 seconds. After waiting at least 10 minutes, the firefly luminescence was measured by Envision.Measuring renilla luciferase activity: 20 ul Stop-Glo Reagent was added to the 384-well plates. The plates were shaken for lmin and then centrifuged at 1000 rpm for 30 seconds. After waiting at least 10 minutes, the renilla luminescence was measured by Envision.
Conditions: HEK-293T, 24 h

Compound	pIC50	IC50
O[C@@H]1CNC[C@H]1n1nnc(-c2ccccc2Nc2ccc(C(F)(F)F)cc2)n1	–	in the range around 550 nM
OC1(Cn2nnc(-c3ccccc3Nc3ccc(C(F)(F)F)cc3)n2)CCN(c2ccccc2)C1 (stereo unspecified)	–	in the range around 3000 nM
Cn1nc(-c2ccccc2Nc2ccc(C(F)(F)F)cc2)nc1CCO	–	in the range around 3000 nM
OCCn1nnc(-c2ccccc2Nc2cccc(F)c2)n1	–	in the range around 550 nM
FC(F)(F)c1ccc(Nc2ccccc2-c2nnn(-c3ccccn3)n2)cc1	–	in the range around 550 nM
OC1(Cn2nnc(-c3ccccc3Nc3ccc(C(F)(F)F)cc3)n2)CCOCC1	–	in the range around 550 nM
FC(F)(F)c1ccc(Nc2ccccc2-c2nnn(C3CCNC3)n2)cc1 (stereo unspecified)	–	in the range around 550 nM
CO[C@H](C)[C@H](C)n1nnc(-c2ccccc2Nc2ccc(C(F)(F)F)cc2)n1	–	in the range around 550 nM
CC(=O)N1CCCC(O)(Cn2nnc(-c3ccccc3Nc3ccc(C(F)(F)F)cc3)n2)C1 (stereo unspecified)	–	in the range around 550 nM
O[C@H]1CNC[C@@H]1n1nnc(-c2ccccc2Nc2ccc(C(F)(F)F)cc2)n1	–	in the range around 550 nM
C[C@H](O)[C@H](C)n1nnc(-c2ccccc2Nc2ccc(C(F)(F)F)cc2)n1	> 7.00	–

More lines, now with the values ahead:

pIC50	IC50	Compound
> 7.00	–	OCCn1nnc(-c2cc(Br)ccc2Nc2ccc(C(F)(F)F)cc2)n1
–	in the range around 550 nM	FCCn1nnc(-c2ccccc2Nc2ccc(C(F)(F)F)cc2)n1
> 7.00	–	OCCn1nnc(-c2c(F)cccc2Nc2ccc(C(F)(F)F)cc2)n1
–	in the range around 3000 nM	Cn1nc(-c2ccccc2Nc2ccc(C(F)(F)F)cc2)cc1CCO
–	in the range around 3000 nM	CNCCCn1nnc(-c2ccccc2Nc2ccc(C(F)(F)F)cc2)n1
> 7.00	–	OCCn1nnc(-c2cc(F)ccc2Nc2ccc(C(F)(F)F)cc2)n1
> 7.00	–	NC(=O)NCCn1nnc(-c2ccccc2Nc2ccc(C(F)(F)F)cc2)n1
–	in the range around 550 nM	FC(F)(F)c1ccc(Nc2ccccc2-c2nnn(Cc3cccnc3)n2)cc1
–	in the range around 550 nM	NCC(CO)n1nnc(-c2ccccc2Nc2ccc(C(F)(F)F)cc2)n1 (stereo unspecified)
> 7.00	–	CC(O)Cn1nnc(-c2ccccc2Nc2ccc(C(F)(F)F)cc2)n1 (stereo unspecified)
> 7.00	–	CCc1ccc(Nc2ccc(C(F)(F)F)cc2)c(-c2nnn(CCO)n2)c1
> 7.00	–	OCCn1nnc(-c2cccc(F)c2Nc2ccc(C(F)(F)F)cc2)n1
–	in the range around 3000 nM	NS(=O)(=O)NCCn1nnc(-c2ccccc2Nc2ccc(C(F)(F)F)cc2)n1
–	in the range around 550 nM	FC(F)(F)c1ccc(Nc2ccccc2-c2nnn(Cc3ccncc3)n2)cc1
> 7.00	–	OCCn1nnc(-c2cc(C3CC3)ccc2Nc2ccc(C(F)(F)F)cc2)n1

Source: ChEMBL document CHEMBL5728837, “Non-fused tricyclic compounds” (2021)
